In patent publication US20250249001A1, “METHODS OF TREATING SUBSTANCE USE DISORDER WITH 4-(3-CYANOPHENYL)-6-PYRIDINYLPYRIMIDINE MGLU5 NEGATIVE ALLOSTERIC MODULATORS” (Tempero Bio, Inc., priority 2022, published 2025):

Assays:
[1] = test system: voluntary home-cage alcohol drinking by Wistar rats; test: Home-cage two-bottle choice alcohol drinking, acute treatment; assay type: in vivo
Experimental: Animals: Male Wistar rats (Charles River Laboratories, INC) were used in these studies. Rat housing and testing was conducted at the University of North Carolina at Chapel Hill (UNC-CH) School of Medicine in a state-of-the-art rodent vivarium approved by the Association for Assessment and Accreditation of Laboratory Animal Care International (AAALAC). Rat health was monitored daily by study investigators and veterinarians in the Division of Comparative Medicine UNC. All experimental procedures were carried out in accordance with the NIH Guide to Care and Use of Laboratory Animals (Committee for the Update of the Guide for the Care and Use of Laboratory Animals, 2011) and institutional guidelines.
Rats were housed individually in standard Plexiglas cages with standard rodent food and water available ad libitum. Upon arrival from the vendor, rats were given 7 days to acclimate to the vivarium during which they were weighed and handled by an investigator each day to monitor general health and habituate them to human contact. Rats were then weighed each day within 1-h of experimental procedures to calculate drug dosages relative to body weight. […] The colony was maintained at […] on a 12-hour light/dark cycle, with the lights on from 10 AM-10 PM. All behavioral experiments were conducted during the light portion of the light cycle.
Home-cage alcohol drinking method. Oral alcohol and water intake were examined using a two-bottle choice protocol, which is standard in the field and commonly used in our laboratory. Male Wistar rats (n=12) were first adapted to drinking from a 50 ml conical tube fitted with a standard stainless-steel ball bearing sipper tube that limits spillage. Then, two bottles were place on the cage daily. One bottle contained an alcohol solution and the other contained water. Bottles containing fresh solutions were weighed daily before and after a 24 hr access period. After drug treatment, bottles were weighed after 1 hr and 24 hrs of access. Each week, rats had 4-5 days of sweetened alcohol and water available and the remaining days only water.
Briefly, rats were first exposed to alcohol (10% v/v)+sucrose (5% w/v). versus water in the two bottles. Then, over a period of 6-weeks, the concentrations of alcohol and sucrose were gradually adjusted to alcohol (8% v/v)+sucrose (2% w/v) to achieve intake of pharmacologically relevant doses of alcohol. Rats were maintained at this concentration for the duration of the experiment for both acute (3.1.a) and chronic (3.1.b) home-cage drinking studies. Use of sweetened alcohol solutions in preclinical research provides face validity to the binge-intoxication stage of alcohol addiction in humans where sweeteners are commonly added to alcohol.
Compound 1 treatment. After establishing baseline intake of sweetened alcohol and water, rats were habituated to i.p. injections. All rats (N=12) were administered 3 habituation injections of vehicle (10% w/v kolliphor in BCD (10%)) prior to the Compound 1 dose response curve and alcohol intake was measured. Then, the Compound 1 dose response curve was conducted with dose order randomized according to a modified Latin-Square design. Rats were given a minimum of 1-2 days between injections to ensure normal drinking was re-established in absence of drug administration. Each dose of Compound 1 (0-10 mg/kg) was administered via i.p. injection and rats were placed back in the home-cage for 1 hr prior to the return of sweetened alcohol and water. Alcohol intake was measured after 1-h and 24-hrs of access in grams by weighing the drinking bottles. Data were excluded from 1 rat that emptied both bottles fully each day without drinking the solutions; thus, results are presented for a final group of N=11 rats.
Efficacy comparisons to MPEP and Naltrexone. […]

[2] = Phase 1 multiple ascending dose study, exposure; assay type: in vivo, healthy subjects; settings: 100 mg/day (50 mg twice per day) oral; study suspended at day 9 after dosage of 6 patients
Text: Example 5 presents the protocol for a suspended, multiple ascending dose (MAD) study to evaluate the safety, tolerability, and pharmacokinetics (PK) of Compound 1 in healthy subjects. In the following paragraphs, Example 5 is described in the future tense for sake of brevity; the study was suspended at day 9 after dosage of 6 patients. […] Example 6 presents the protocol for a planned, amended Phase 1 MAD study.
Study Objectives and Endpoints—See Table 12 for Study Objectives and Endpoints. There will be up to 4 dose cohorts, and within each cohort subjects will be randomly assigned to receive either active drug or placebo. Study subjects will be administered active drug or placebo twice daily for 14 days (note: only the AM dose is administered on Day 14).
Each subject will be randomly assigned to 1 of the following cohorts: Cohort 1: Group 1 (6 subjects): 50 mg of Compound 1 twice daily (bid); Group 2 (2 subjects): placebo (matching Compound 1) bid. Cohort 2: Group 3 (6 subjects): 100 mg of Compound 1 bid; Group 4 (2 subjects): placebo (matching Compound 1) bid. Cohort 3: Group 5 (6 subjects): 150 mg of Compound 1 bid; Group 6 (2 subjects): placebo (matching Compound 1) bid.

## N#Cc1cc(Cl)cc(-c2cc(-c3ccc(F)cn3)ncn2)c1 [Compound 1, 3-chloro-5-[6-(5-fluoropyridin-2-yl)pyrimidin-4-yl]benzonitrile]
[1]; 10 mg/kg i.p. acute
  alcohol intake after 24-hrs of access vs vehicle: did not achieve statistical significance
[1]; 1-hr access, dose range 0-10 mg/kg i.p.
  dosage giving the greatest reduction in EtOH intake: 3 mg/kg
[1]; Compound 1 1, 3, and 10 mg/kg i.p. acute, 1 hr before access, sweetened alcohol, N=11
  alcohol intake (EtOH g/kg/1-h) after 1-hr access vs vehicle control: significantly decreased alcohol intake
[1]; Compound 1 1 and 3 mg/kg i.p. acute
  alcohol intake after 24-hrs of access vs vehicle: significantly decreased alcohol intake
[1]; each drug 3 mg/kg i.p. acute
  alcohol intake at the 24-hr measurement interval, comparison of equivalent doses: maintained efficacy
[1]; each drug 3 mg/kg i.p. acute, N=11
  alcohol drinking at 1-hr of access vs vehicle control, positive control comparison: significantly decreased alcohol drinking
[2]
  exposure in healthy subjects: greater than expected exposure
